Measured values published in patent publication US7582649B2, “Hydroxy alkyl substituted 1,3,8-triazaspiro[4.5]decan-4-one derivatives useful for the treatment of ORL-1 receptor mediated disorders” (Janssen Pharmaceutica, NV, priority 2002, dated 2009).
Counter-ions that a name gives are not always drawn. Like-named read-outs stand apart in the source and are kept apart here.

Legend:
kappa opioid receptor = kappa opioid receptor (Homo sapiens, UniProt P41145); test: Filtration binding assay: kappa opioid receptor
mu opioid receptor = mu opioid receptor (Homo sapiens, UniProt P35372); test: Filtration binding assay: mu opioid receptor
delta opioid receptor = delta opioid receptor (Homo sapiens, UniProt P41143); test: Filtration binding assay: delta opioid receptor
[1] = mean where tested more than once, read-out: Kappa IC50
[2] = mean where tested more than once, read-out: Mu IC50
[3] = mean where tested more than once, read-out: Delta IC50

delta opioid receptor, sequence (P41143 whole entry): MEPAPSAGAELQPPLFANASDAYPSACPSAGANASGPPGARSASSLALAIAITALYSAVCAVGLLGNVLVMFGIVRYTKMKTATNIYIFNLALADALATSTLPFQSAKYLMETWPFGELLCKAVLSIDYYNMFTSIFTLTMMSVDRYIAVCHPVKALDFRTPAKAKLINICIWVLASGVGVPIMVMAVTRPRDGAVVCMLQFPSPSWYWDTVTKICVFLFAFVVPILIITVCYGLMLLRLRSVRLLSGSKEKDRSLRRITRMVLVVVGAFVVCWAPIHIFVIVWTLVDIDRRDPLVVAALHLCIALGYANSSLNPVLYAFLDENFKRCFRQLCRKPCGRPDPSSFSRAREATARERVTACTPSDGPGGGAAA
kappa opioid receptor, sequence (P41145 whole entry): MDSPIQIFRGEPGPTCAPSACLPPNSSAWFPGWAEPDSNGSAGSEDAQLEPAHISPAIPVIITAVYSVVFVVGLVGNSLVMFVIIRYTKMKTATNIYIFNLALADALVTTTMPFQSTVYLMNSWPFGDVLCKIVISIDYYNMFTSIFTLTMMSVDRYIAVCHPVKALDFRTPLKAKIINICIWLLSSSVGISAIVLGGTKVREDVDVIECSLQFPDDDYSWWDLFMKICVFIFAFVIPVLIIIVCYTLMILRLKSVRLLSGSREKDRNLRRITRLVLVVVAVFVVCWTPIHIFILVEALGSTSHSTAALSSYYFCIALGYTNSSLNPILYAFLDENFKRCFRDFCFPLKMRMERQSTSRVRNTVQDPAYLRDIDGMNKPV
mu opioid receptor, sequence (P35372 whole entry): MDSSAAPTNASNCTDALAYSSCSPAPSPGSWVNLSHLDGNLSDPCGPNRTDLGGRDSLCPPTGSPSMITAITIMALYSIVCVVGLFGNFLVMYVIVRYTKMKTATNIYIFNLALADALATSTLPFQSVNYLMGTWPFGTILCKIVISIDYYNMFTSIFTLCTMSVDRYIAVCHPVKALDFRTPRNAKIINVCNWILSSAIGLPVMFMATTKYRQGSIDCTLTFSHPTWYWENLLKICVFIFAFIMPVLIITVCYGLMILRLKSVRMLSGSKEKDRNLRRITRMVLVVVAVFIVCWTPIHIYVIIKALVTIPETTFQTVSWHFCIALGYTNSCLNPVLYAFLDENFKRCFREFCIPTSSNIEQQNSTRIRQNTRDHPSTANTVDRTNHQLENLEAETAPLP

SMILES	IC50 (kappa opioid receptor)	IC50 (mu opioid receptor)	IC50 (delta opioid receptor)	also measured
COc1ccc(CCNC[C@H](O)CN2CN(c3ccc(F)cc3)C3(CCN(C4Cc5cccc6cccc4c56)CC3)C2=O)cc1OC (mixture of isomers) [compound 48]	170 nM	540 nM	> 10000 nM	–
COc1ccc(CCNC[C@@H](O)CN2CN(c3ccc(F)cc3)C3(CCN(C4Cc5cccc6cccc4c56)CC3)C2=O)cc1OC (mixture of isomers) [compound 300]	130 nM	510 nM	4840 nM	–
COC(=O)c1ccc(CNC[C@H](O)CN2CN(c3ccc(F)cc3)C3(CCN(C4Cc5cccc6cccc4c56)CC3)C2=O)cc1 (mixture of isomers) [compound 348]	930 nM	5420 nM	> 10000 nM	–
CNCCCNCC(O)CN1CN(c2ccc(F)cc2)C2(CCN(CC3CCC4CC3C4(C)C)CC2)C1=O (mixture of isomers) [compound 664]	–	–	–	Ki (kappa opioid receptor): 720 nM; Ki (mu opioid receptor): 260 nM; Ki (delta opioid receptor): > 5000 nM
CC(=O)NC(CSC[C@H](O)CN1CN(c2ccc(F)cc2)C2(CCN(CC3CCCCCCC3)CC2)C1=O)C(=O)O (single isomer, unassigned) [compound 447]	–	480 nM	480 nM	–
O=C1N(C[C@@H](O)CNCCN2CCOCC2)CN(c2ccc(F)cc2)C12CCN(CC1CCCCCCC1)CC2 [Compound #1]	130 nM	620 nM	> 10000 nM	–
COc1ccc(CNC[C@@H](O)CN2CN(c3ccc(F)cc3)C3(CCN(CC4CCCCCCC4)CC3)C2=O)cc1OC [Compound #2]	190 nM	1200 nM	> 10000 nM	–
O=C1N(C[C@H](O)CNCc2cc(C(F)(F)F)cc(C(F)(F)F)c2)CN(c2ccc(F)cc2)C12CCN(CC1CCCCCCC1)CC2 [Compound #3]	440 nM	4050 nM	9160 nM	–
O=C1N(C[C@H](O)CNCCc2c[nH]cn2)CN(c2ccc(F)cc2)C12CCN(CC1CCCCCCC1)CC2 [Compound #4]	110 nM	160 nM	> 10000 nM	–
O=C1N(C[C@@H](O)CNCc2ccc(F)cc2F)CN(c2ccc(F)cc2)C12CCN(CC1CCCCCCC1)CC2 [Compound #7]	130 nM	1380 nM	7110 nM	–
O=C1N(C[C@@H](O)CNCCc2c[nH]cn2)CN(c2ccc(F)cc2)C12CCN(CC1CCCCCCC1)CC2 [Compound #28]	180 nM	410 nM	> 10000 nM	–
O=C1N(C[C@@H](O)CNc2ccncc2)CN(c2ccc(F)cc2)C12CCN(CC1CCCCCCC1)CC2 [Compound #36, 8-Cyclooctylmethyl-1-(4-fluoro-phenyl)-3-[2-(S)-hydroxy-3-(pyridin-4-ylamino)-propyl]-1,3,8-triaza-spiro[4.5]decan-4-one]	230 nM	1760 nM	1760 nM	–
O=C1N(C[C@@H](O)CN2CCN(c3cccc(C(F)(F)F)c3)CC2)CN(c2ccc(F)cc2)C12CCN(CC1CCCCCCC1)CC2 [Compound #66]	130 nM	550 nM	5930 nM	–
CC(C)(C)OC(=O)N1CCN(C[C@H](O)CN2CN(c3ccc(F)cc3)C3(CCN(CC4CCCCCCC4)CC3)C2=O)CC1 [Compound #73]	250 nM	680 nM	> 10000 nM	–
COc1ccc(CCN(C)C[C@@H](O)CN2CN(c3ccc(F)cc3)C3(CCN([C@@H]4Cc5cccc6cccc4c56)CC3)C2=O)cc1OC [Compound #339, (R)-8-Acenaphthen-1-yl-3-(3-{[2-(3,4-dimethoxy-phenyl)-ethyl]-methyl-amino}-(R)-2-hydroxy-propyl)-1-(4-fluoro-phenyl)-1,3,8-triaza-spiro[4.5]decan-4-one]	180 nM	210 nM	> 10000 nM	–
CN(C)C[C@@H](O)CN1CN(c2ccc(F)cc2)C2(CCN([C@@H]3Cc4cccc5cccc3c45)CC2)C1=O [Compound #423, (R)-Acenaphthen-1-yl-3-(3-dimethylamino-2-hydroxy-(R)-propyl)-1-(4-fluoro-phenyl)-1,3,8-triaza-spiro[4.5]decan-4-one]	–	–	–	IC50 (kappa opioid receptor; [1]): 590 nM; IC50 (mu opioid receptor; [2]): 310 nM; IC50 (delta opioid receptor; [3]): > 1000 nM
NC[C@@H](O)CN1CN(c2ccc(F)cc2)C2(CCN(CC3CCCCCCC3)CC2)C1=O [Compound #620, 3-(3-Amino-2-(R)-hydroxy-propyl)-8-cyclooctylmethyl-1-(4-fluoro-phenyl)-1,3,8-triaza-spiro[4.5]decan-4-one]	–	–	–	Ki (kappa opioid receptor): 190 nM; Ki (mu opioid receptor): 280 nM; Ki (delta opioid receptor): > 5000 nM
NC[C@@H](O)CN1CN(c2ccccc2)C2(CCN([C@H]3CC[C@@H]4CCCc5cccc3c54)CC2)C1=O [Compound #640, dihydrochloride]	–	–	–	Ki (kappa opioid receptor): 210 nM; Ki (mu opioid receptor): 120 nM; Ki (delta opioid receptor): > 5000 nM
Cc1cccc2cccc(CN3CCC4(CC3)C(=O)N(C[C@H](O)CNCCCO)CN4c3ccc(F)cc3)c12 [Compound #651, 1-(4-Fluoro-phenyl)-3-[2-(R)-hydroxy-3-(3-hydroxy-propylamino)-propyl]-8-(8-methyl-naphthalen-1-ylmethyl)-1,3,8-triaza-spiro[4.5]decan-4-one]	–	–	–	Ki (kappa opioid receptor): 310 nM; Ki (mu opioid receptor): 670 nM; Ki (delta opioid receptor): > 5000 nM
CNCCCNC[C@@H](O)CN1CN(c2ccc(F)cc2)C2(CCN(Cc3cccc4cccc(C)c34)CC2)C1=O [Compound #656, 1-(4-Fluoro-phenyl)-3-[2-(R)-hydroxy-3-(3-methylamino-propylamino)-propyl]-8-(8-methyl-naphthalen-1-ylmethyl)-1,3,8-triaza-spiro[4.5]decan-4-one]	–	–	–	Ki (kappa opioid receptor): 420 nM; Ki (mu opioid receptor): 1520 nM; Ki (delta opioid receptor): > 5000 nM
Cc1cccc2cccc(CN3CCC4(CC3)C(=O)N(C[C@H](O)CNCCCN(C)C)CN4c3ccc(F)cc3)c12 [Compound #666, 3-[3-(3-Dimethylamino-propylamino)-2-(R)-hydroxy-propyl]-1-(4-fluoro-phenyl)-8-(8-methyl-naphthalen-1-ylmethyl)-1,3,8-triaza-spiro[4.5]decan-4-one]	–	–	–	Ki (kappa opioid receptor): 140 nM; Ki (mu opioid receptor): 2590 nM; Ki (delta opioid receptor): > 5000 nM

SMILES	IC50 (kappa opioid receptor)	IC50 (mu opioid receptor)	IC50 (delta opioid receptor)	also measured
O=C1N(C[C@@H](O)CNCC23CC4CC(CC(C4)C2)C3)CN(c2ccc(F)cc2)C12CCN(CC1CCCCCCC1)CC2 [compound 17]	250 nM	650 nM	> 10000 nM	–
Cc1cccc(CNC[C@H](O)CN2CN(c3ccc(F)cc3)C3(CCN(CC4CCCCCCC4)CC3)C2=O)c1 [compound 18]	280 nM	450 nM	> 10000 nM	–
O=C1N(C[C@@H](O)CNCc2cccc(Br)c2)CN(c2ccc(F)cc2)C12CCN(CC1CCCCCCC1)CC2 [compound 20]	440 nM	1280 nM	> 10000 nM	–
COc1cccc(CNC[C@H](O)CN2CN(c3ccc(F)cc3)C3(CCN(CC4CCCCCCC4)CC3)C2=O)c1 [compound 35]	660 nM	820 nM	> 10000 nM	–
O=C1N(C[C@@H](O)CNCc2ccccn2)CN(c2ccc(F)cc2)C12CCN(CC1CCCCCCC1)CC2 [compound 39]	3250 nM	8830 nM	> 10000 nM	–
Cc1ccc(CNC[C@H](O)CN2CN(c3ccc(F)cc3)C3(CCN(CC4CCCCCCC4)CC3)C2=O)cc1 [compound 41]	250 nM	2100 nM	> 10000 nM	–
CCCCN(Cc1ccccc1)C[C@H](O)CN1CN(c2ccccc2)C2(CCN(C3Cc4cccc5c4[C@@H](CCC5)C3)CC2)C1=O (some centres unmarked) [compound 54]	110 nM	350 nM	> 10000 nM	–
CN(C)CCN(Cc1ccccc1)C[C@H](O)CN1CN(c2ccc(F)cc2)C2(CCN(CC3CCCCCCC3)CC2)C1=O [compound 63]	230 nM	3430 nM	8780 nM	–
CC1CN(C[C@H](O)CN2CN(c3ccc(F)cc3)C3(CCN(CC4CCCCCCC4)CC3)C2=O)CC(C)O1 (some centres unmarked) [compound 75]	300 nM	980 nM	> 10000 nM	–
CC(=O)NC(CSC[C@H](O)CN1CN(c2ccc(F)cc2)C2(CCN(CC3CCCCCCC3)CC2)C1=O)C(=O)O (some centres unmarked) [compound 100]	–	–	–	IC50 (kappa opioid receptor; [1]): 280 nM; IC50 (mu opioid receptor; [2]): 230 nM; IC50 (delta opioid receptor; [3]): > 10000 nM
CC(C)(C)N(Cc1ccccc1)C[C@H](O)CN1CN(c2ccc(F)cc2)C2(CCN(Cc3cccc4ccccc34)CC2)C1=O [compound 250]	380 nM	1200 nM	> 10000 nM	–
O=C1N(C[C@@H](O)CNCCN2CCOCC2)CN(c2ccc(F)cc2)C12CCN(Cc1cccc3ccccc13)CC2 [compound 251]	450 nM	1580 nM	> 10000 nM	–
CCN(Cc1ccc(C)cc1)C[C@H](O)CN1CN(c2ccc(F)cc2)C2(CCN(Cc3cccc4ccccc34)CC2)C1=O [compound 252]	1340 nM	3700 nM	> 10000 nM	–
COc1ccc(CCNC[C@H](O)CN2CN(c3ccc(F)cc3)C3(CCN(Cc4cccc5ccccc45)CC3)C2=O)cc1OC [compound 253]	400 nM	760 nM	2160 nM	–
O=C1N(C[C@@H](O)CNCCc2ccc3c(c2)OCO3)CN(c2ccc(F)cc2)C12CCN(Cc1cccc3ccccc13)CC2 [compound 254]	800 nM	2830 nM	> 10000 nM	–
COc1cc(CCNC[C@H](O)CN2CN(c3ccc(F)cc3)C3(CCN(Cc4cccc5ccccc45)CC3)C2=O)c([N+](=O)[O-])cc1OC [compound 255]	620 nM	2490 nM	> 10000 nM	–
COc1ccc(CCN(C)C[C@H](O)CN2CN(c3ccc(F)cc3)C3(CCN(Cc4cccc5ccccc45)CC3)C2=O)cc1OC [compound 256]	1180 nM	5450 nM	> 10000 nM	–
COc1ccc(CCNC[C@H](O)CN2CN(c3ccc(F)cc3)C3(CCN(Cc4ccc5ccccc5c4)CC3)C2=O)cc1OC [compound 261]	270 nM	1560 nM	> 10000 nM	–
COc1ccc(CNC[C@H](O)CN2CN(c3ccc(F)cc3)C3(CCN(Cc4cccc5cccc(C)c45)CC3)C2=O)cc1 [compound 398]	250 nM	> 10000 nM	> 10000 nM	–
O=C1N(C[C@H]2CO2)CN(c2ccc(F)cc2)C12CCN(Cc1ccc3ccccc3c1)CC2 [compound 542]	530 nM	160 nM	> 10000 nM	–
